The assay deals with T1, New Delhi metallo-β-lactamase-1 (NDM-1) (Escherichia coli, UniProt E5KIY2).
T1 construct: gene blaNDM-1; His-tagged protein (pET28a), ndm-1 from E. coli ZC-YN3
Kind of assay: nitrocefin hydrolysis inhibition assay with purified enzyme. Format: biochemical.

This note sets out measurements from article PMC7143545, “Specific NDM-1 Inhibitor of Isoliquiritin Enhances the Activity of Meropenem against NDM-1-positive Enterobacteriaceae in vitro” (International Journal of Environmental Research and Public …, 2020).

The term IC50 denotes the point on the concentration scale where inhibition reaches its midpoint. Read a low IC50 as greater potency in that assay.

T1 sequence (E5KIY2 29-270 limits assumed): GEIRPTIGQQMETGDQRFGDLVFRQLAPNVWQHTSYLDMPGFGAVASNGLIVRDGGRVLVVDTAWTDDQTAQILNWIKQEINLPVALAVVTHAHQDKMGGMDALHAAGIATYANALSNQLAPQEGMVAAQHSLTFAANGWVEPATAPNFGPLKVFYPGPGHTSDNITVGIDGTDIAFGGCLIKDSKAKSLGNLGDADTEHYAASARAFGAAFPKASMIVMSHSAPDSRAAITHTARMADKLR

Regarding `O=C(/C=C/c1ccc(O[C@@H]2O[C@H](CO)[C@@H](O)[C@H](O)[C@H]2O)cc1)c1ccc(O)cc1O` [isoliquiritin], the IC50 is 92.3 µM.
